Source: publication PMC8453635, “Piperidine Azasugars Bearing Lipophilic Chains: Stereoselective Synthesis and Biological Activity as Inhibitors of Glucocerebrosidase (GCase)” (The Journal of Organic Chemistry, 2021)

What was measured:
α-glucosidase = biological target: T1, α-glucosidase (Homo sapiens, UniProt P10253); experiment: Human lysosomal glycosidase selectivity screening (lymphocyte homogenate); type: biochemical; settings: 1 mM, read-out: percentage of inhibition, α-Glu
T1 construct: α-glucosidase from lymphocytes isolated from healthy donors; from tissue; host or cells: lymphocytes from healthy donors' blood, sonicated homogenate
Description: In order to avoid undesired inhibitory side effects of a potential new drug, it has to be selective for a given target. The selectivity of the newly synthesized compounds 14, 15, and 33·HCl toward GCase was then investigated, evaluating their inhibition at 1 mM concentration toward six other lysosomal glycosidases (namely, α-and β-mannosidases, α- and β-galactosidases, α-fucosidase, and α-glucosidase) in cell homogenates (leucocytes or lymphocytes) isolated from healthy donors. […] Indeed, only moderate inhibitory activity (ca. 50%) was found toward human β-galactosidase for both piperidines 14 and 15, while negligible inhibitory activity was detected in all other cases. […]
α-Mannosidase activity was measured in a flat-bottomed 96-well plate. […] The reaction was stopped by addition of sodium carbonate (200 μL; 0.5M, pH 10.7) containing Triton X -100 (0.0025 %), and the fluorescence 4 -methylumbelliferone release d by α-mannosidase activity was measured in SpectraMax M2 microplate reader ( λex=365 nm, λem=435 nm; Molecular Devices). […]
β-Mannosidase activity was measured in a flat -bottomed 96 -well plate. […] The reaction was stopped by addition of sodium carbonate (200 μL; 0.5M, pH 10.7) containing Triton X -100 (0.0025 %), and the fluorescence of 4 -methylumbelliferone released by β-mannosidase activity was meas ured in SpectraMax M2 microplate reader ( λex=365 nm, λem=435 nm; […]

[1] = test system: human fibroblasts wild type; experiment: MTT cytotoxicity test; type: cell-based; settings: prolonged incubation at 100 and 50 μM
Description: The MTT test was carried out using the human fibroblasts wild type at different concentrations of compound 33·HCl. Fibroblasts were grown in the presence of Dulbecco’s modified Eagle’s medium supplemented with 10% fetal bovine serum (FBS), 1% glutamine, and 1% penicillin–streptomycin, at 37 °C in controlled atmosphere with 5% CO2. For the experiments, cells were seeded at a density of 20,000 cells per well in 24-well plates and grown for 24 h (or 48 h) before adding the compound. The compound was dissolved in water; then, aliquots of these were diluted in the growth medium. To preserve sterility of solutions, these were filtered with 0.22 μm filters before adding to the dishes containing fibroblasts. Then, cells were incubated at 37 °C in 5% CO2 for 24 h (or 48 h). After this time, the media were replaced with medium containing 0.5 mg/mL of 3-(4,5-dimethylthiazol-2-yl)-2,5-diphenyltetrazolium bromide (MTT); the cells were incubated for an additional 1 h at 37 °C in 5% CO2. Finally, the number of viable cells was quantified by the estimation of their dehydrogenase activity, which reduces MTT to water-insoluble formazan. […] The quantitation was carried out measuring the absorbance of samples at 570 nm with the iMark microplate absorbance reader (BIO RAD) in a 96-well format. […]
33.HCl at different concentrations. After this time, the viability of cells was evaluated using MMT assay. […]

Structure (SMILES) | inhibition at 1000 µM (α-glucosidase) | cytotoxicity (MTT test) [1]
CCCCCCCC[C@H]1[C@@H](O)[C@H](O)[C@H](O)CN1CCCCCCCC [compound 14, (2S,3R,4R,5R)-1,2-Dioctylpiperidine-3,4,5-triol] | 18% | 
CCCCCCCC[C@@H]1[C@@H](O)[C@H](O)[C@H](O)CN1C(CCCCCCC)CCCCCCC.Cl [compound 33·HCl, (2R,3R,4R,5R)-2-Octyl-1-(pentadecan-8-yl)-piperidine-3,4,5-triol Hydrochloride] |  | remarkable cytotoxicity
